Where a SMILES comes first, the peptide text is derived from it. [ ]: non-standard residue; d: D form.
Legend:
[1] = test system: E. coli; assay: microbe, parasite or virus in culture; assay type: cell-based, Escherichia coli; details: 16 h
Procedure, shortened: (§1)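 Broth microdilution in MH medium: strains diluted to 2×10^6 CFU were mixed with equal volumes of twofold serial peptide dilutions in MH medium. MIC was taken as the lowest peptide concentration preventing bacterial growth.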

[2] = test system: MDREC 1229; assay: microbe, parasite or virus in culture; assay type: cell-based, Escherichia coli
Procedure, shortened: as §1

[3] = test system: P. aeruginosa; assay: microbe, parasite or virus in culture; assay type: cell-based, Pseudomonas aeruginosa
Procedure, shortened: as §1

[4] = test system: MDRST 8009; assay type: cell-based, Salmonella typhimurium; details: agent alone
Procedure, shortened: as §1

[5] = test system: B. subtilis; assay: microbe, parasite or virus in culture; assay type: cell-based, Bacillus subtilis
Procedure, shortened: as §1

[6] = test system: S. epidermidis; assay: microbe, parasite or virus in culture; assay type: cell-based, Staphylococcus epidermidis
Procedure, shortened: as §1

[7] = test system: E. coli; assay: MIC of antibiotic during combined treatment with antimicrobial peptide; assay type: cell-based, Escherichia coli; details: for Antibiotic MIC, Erythromycin / Antibiotic MIC, Linezolid / Antibiotic MIC, Vancomycin: E. coli
Procedure, shortened: (§2)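 Checkerboard-type MIC of peptide–antibiotic mixtures in MH medium: the antibiotic was serially diluted in MH medium and added to wells, then the reversed arrangement was also tested.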

[8] = test system: MDREC 1229; assay: as above; assay type: cell-based, Escherichia coli
Procedure, shortened: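 Strains in MH medium at 2×10^6 CFU/ml were mixed with peptide diluted stepwise (2:1) from its MIC, then antibiotic dilutions in MH medium were added to give the antibiotic MIC. The reversed set-up, peptide titrated against fixed antibiotic, gave the peptide MIC.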

[9] = test system: A. baumannii; assay: as above; assay type: cell-based, Acinetobacter baumannii
Procedure, shortened: as §2

[10] = peptide treatment concentration 1 μg/ml
[11] = peptide treatment concentration 2 μg/ml
[12] = peptide treatment concentration 4 μg/ml
[13] = peptide treatment concentration 6 μg/ml
[14] = peptide treatment concentration 8 μg/ml
[15] = peptide treatment concentration 16 μg/ml
[16] = peptide treatment concentration 32 μg/ml
[17] = peptide treatment concentration 64 μg/ml
[18] = A. baumannii, combined with peptide at 1 μg/ml

CC[C@H](C)[C@H](NC(=O)[C@H](CCCCN)NC(=O)[C@H](Cc1c[nH]c2ccccc12)NC(=O)[C@@H](N)CCCNC(=N)N)C(=O)N[C@@H](Cc1ccccc1)C(=O)N[C@@H](CCCCN)C(=O)N[C@@H](CCCCN)C(=O)N[C@H](C(=O)N[C@H](CCCCN)C(=O)N[C@@H](CCCCN)C(=O)N[C@@H](CC(C)C)C(=O)N[C@@H](CC(C)C)C(=O)N[C@@H](Cc1c[nH]cn1)C(=O)N[C@@H](CCC(=O)O)C(=O)N[C@@H](C)C(=O)N[C@@H](CCCCN)C(=O)N[C@@H](CCCCN)C(=O)N[C@@H](Cc1c[nH]c2ccccc12)C(N)=O)[C@@H](C)CC [PapMA-20, RWK IFK KIk KLL HEA KKW-NH2] (H-RWKIFKKI[dK]KLLHEAKKW-NH2; N-terminus assumed)
higher level than the PapMA-1 peptide: Synergistic effect of antibacterial activity with existing antibiotics compared with PapMA-1 ([7]; E. coli and MDREC1229) | Synergistic effect of antibacterial activity with existing antibiotics compared with PapMA-1 ([9]; A. baumannii and MDRAB 12035)
2 µg/mL: Antibiotic MIC, Erythromycin [8, 13]
>128 µg/mL: Minimal inhibitory concentration MIC [5] | Minimal inhibitory concentration MIC [6] | Antibiotic MIC, Linezolid ([7]; linezolid combined with peptide at 1 μg/ml) | Antibiotic MIC, Vancomycin ([7]; vancomycin combined with peptide at 1 μg/ml) | Antibiotic MIC, Vancomycin ([7]; vancomycin combined with peptide at 2 μg/ml) | Antibiotic MIC, Linezolid [8, 10] | Antibiotic MIC, Vancomycin [8, 10] | Antibiotic MIC, Vancomycin [8, 11] | Antibiotic MIC, Linezolid [9, 18] | Antibiotic MIC, Vancomycin [9, 18]
8 µg/mL: Antibiotic MIC, Erythromycin ([7]; erythromycin combined with peptide at 4 μg/ml) | Antibiotic MIC, Linezolid ([7]; linezolid combined with peptide at 6 μg/ml) | Antibiotic MIC, Vancomycin ([7]; vancomycin combined with peptide at 8 μg/ml) | Antibiotic MIC, Erythromycin [8, 12] | Antibiotic MIC, Linezolid [8, 14] | Antibiotic MIC, Vancomycin [8, 14]
0 µg/mL: Antibiotic MIC, Erythromycin ([7]; erythromycin combined with peptide at 16 μg/ml) | Antibiotic MIC, Erythromycin ([7]; erythromycin combined with peptide at 32 μg/ml) | Antibiotic MIC, Erythromycin ([7]; erythromycin combined with peptide at 64 μg/ml) | Antibiotic MIC, Linezolid ([7]; linezolid combined with peptide at 16 μg/ml) | Antibiotic MIC, Linezolid ([7]; linezolid combined with peptide at 32 μg/ml) | Antibiotic MIC, Linezolid ([7]; linezolid combined with peptide at 64 μg/ml) | Antibiotic MIC, Vancomycin ([7]; vancomycin combined with peptide at 16 μg/ml) | Antibiotic MIC, Vancomycin ([7]; vancomycin combined with peptide at 32 μg/ml) | Antibiotic MIC, Vancomycin ([7]; vancomycin combined with peptide at 64 μg/ml) | Antibiotic MIC, Erythromycin [8, 15] | Antibiotic MIC, Linezolid [8, 15] | Antibiotic MIC, Vancomycin [8, 15] | Antibiotic MIC, Erythromycin [8, 16] | Antibiotic MIC, Linezolid [8, 16] | Antibiotic MIC, Vancomycin [8, 16] | Antibiotic MIC, Erythromycin [8, 17] | Antibiotic MIC, Linezolid [8, 17] | Antibiotic MIC, Vancomycin [8, 17]
4 µg/mL: Antibiotic MIC, Linezolid ([7]; linezolid combined with peptide at 8 μg/ml)
128 µg/mL: Antibiotic MIC, Erythromycin [8, 10]
32 µg/mL: Antibiotic MIC, Erythromycin ([7]; erythromycin combined with peptide at 2 μg/ml) | Antibiotic MIC, Erythromycin [8, 11] | Antibiotic MIC, Erythromycin [9, 18]
16 µg/mL: Minimal inhibitory concentration MIC [1] | Minimal inhibitory concentration MIC [2] | Peptide MIC, peptide alone [2] | Antibiotic MIC, Linezolid ([7]; linezolid combined with peptide at 4 μg/ml) | Antibiotic MIC, Vancomycin ([7]; vancomycin combined with peptide at 6 μg/ml) | Antibiotic MIC, Linezolid [8, 12] | Antibiotic MIC, Linezolid [8, 13] | Antibiotic MIC, Vancomycin [8, 13]
64 µg/mL: Minimal inhibitory concentration MIC [3] | Minimal inhibitory concentration MIC [4] | Antibiotic MIC, Erythromycin ([7]; erythromycin combined with peptide at 1 μg/ml) | Antibiotic MIC, Linezolid ([7]; linezolid combined with peptide at 2 μg/ml) | Antibiotic MIC, Vancomycin ([7]; vancomycin combined with peptide at 4 μg/ml) | Antibiotic MIC, Linezolid [8, 11] | Antibiotic MIC, Vancomycin [8, 12]
1 µg/mL: Antibiotic MIC, Erythromycin ([7]; erythromycin combined with peptide at 6 μg/ml) | Antibiotic MIC, Erythromycin [8, 14]
0.5 µg/mL: Antibiotic MIC, Erythromycin ([7]; erythromycin combined with peptide at 8 μg/ml)

Source: patent US11214594B2, “Antimicrobial peptide having synergistic antibacterial effect with antibiotics on multidrug resistant bacteria, and use thereof” (priority 2016, dated 2022)
